From patent publication US12065436B2, “Cardiac sarcomere inhibitors” (Cytokinetics, Inc., priority 2018, dated 2024) come the findings set out here.

This assay has as its target bovine cardiac myofibrils (full-length cardiac myosin ATPase in the native sarcomere) (Bos taurus (Bovine), UniProt Q9BE39). Kind of assay: Skinned bovine cardiac myofibril ATPase assay (PK/LDH-coupled). The format is biochemical. Particulars: Ca2+ activating to 75% of maximal rate; for CDMF75 IC15: concentration giving 15% inhibition; for pIC50: read-out: CDMF75 IC50. The gist of the method:
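Inhibition of steady-state ATPase read at 340 nm through a PK/LDH-coupled NADH system (0.5 mM NADH, 1.5 mM PEP). Detergent-skinned bovine cardiac myofibrils, 1 mg/mL, were tested at pH 6.8 in PIPES/MgCl2 with 50 μM ATP and calcium adjusted to give pCa50 or pCa75 activation.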

Each structure is given as a SMILES string. pIC50: −log10 of the molar value.

Sequence of bovine cardiac myofibrils (full-length cardiac myosin ATPase in the native sarcomere) (Q9BE39 whole entry): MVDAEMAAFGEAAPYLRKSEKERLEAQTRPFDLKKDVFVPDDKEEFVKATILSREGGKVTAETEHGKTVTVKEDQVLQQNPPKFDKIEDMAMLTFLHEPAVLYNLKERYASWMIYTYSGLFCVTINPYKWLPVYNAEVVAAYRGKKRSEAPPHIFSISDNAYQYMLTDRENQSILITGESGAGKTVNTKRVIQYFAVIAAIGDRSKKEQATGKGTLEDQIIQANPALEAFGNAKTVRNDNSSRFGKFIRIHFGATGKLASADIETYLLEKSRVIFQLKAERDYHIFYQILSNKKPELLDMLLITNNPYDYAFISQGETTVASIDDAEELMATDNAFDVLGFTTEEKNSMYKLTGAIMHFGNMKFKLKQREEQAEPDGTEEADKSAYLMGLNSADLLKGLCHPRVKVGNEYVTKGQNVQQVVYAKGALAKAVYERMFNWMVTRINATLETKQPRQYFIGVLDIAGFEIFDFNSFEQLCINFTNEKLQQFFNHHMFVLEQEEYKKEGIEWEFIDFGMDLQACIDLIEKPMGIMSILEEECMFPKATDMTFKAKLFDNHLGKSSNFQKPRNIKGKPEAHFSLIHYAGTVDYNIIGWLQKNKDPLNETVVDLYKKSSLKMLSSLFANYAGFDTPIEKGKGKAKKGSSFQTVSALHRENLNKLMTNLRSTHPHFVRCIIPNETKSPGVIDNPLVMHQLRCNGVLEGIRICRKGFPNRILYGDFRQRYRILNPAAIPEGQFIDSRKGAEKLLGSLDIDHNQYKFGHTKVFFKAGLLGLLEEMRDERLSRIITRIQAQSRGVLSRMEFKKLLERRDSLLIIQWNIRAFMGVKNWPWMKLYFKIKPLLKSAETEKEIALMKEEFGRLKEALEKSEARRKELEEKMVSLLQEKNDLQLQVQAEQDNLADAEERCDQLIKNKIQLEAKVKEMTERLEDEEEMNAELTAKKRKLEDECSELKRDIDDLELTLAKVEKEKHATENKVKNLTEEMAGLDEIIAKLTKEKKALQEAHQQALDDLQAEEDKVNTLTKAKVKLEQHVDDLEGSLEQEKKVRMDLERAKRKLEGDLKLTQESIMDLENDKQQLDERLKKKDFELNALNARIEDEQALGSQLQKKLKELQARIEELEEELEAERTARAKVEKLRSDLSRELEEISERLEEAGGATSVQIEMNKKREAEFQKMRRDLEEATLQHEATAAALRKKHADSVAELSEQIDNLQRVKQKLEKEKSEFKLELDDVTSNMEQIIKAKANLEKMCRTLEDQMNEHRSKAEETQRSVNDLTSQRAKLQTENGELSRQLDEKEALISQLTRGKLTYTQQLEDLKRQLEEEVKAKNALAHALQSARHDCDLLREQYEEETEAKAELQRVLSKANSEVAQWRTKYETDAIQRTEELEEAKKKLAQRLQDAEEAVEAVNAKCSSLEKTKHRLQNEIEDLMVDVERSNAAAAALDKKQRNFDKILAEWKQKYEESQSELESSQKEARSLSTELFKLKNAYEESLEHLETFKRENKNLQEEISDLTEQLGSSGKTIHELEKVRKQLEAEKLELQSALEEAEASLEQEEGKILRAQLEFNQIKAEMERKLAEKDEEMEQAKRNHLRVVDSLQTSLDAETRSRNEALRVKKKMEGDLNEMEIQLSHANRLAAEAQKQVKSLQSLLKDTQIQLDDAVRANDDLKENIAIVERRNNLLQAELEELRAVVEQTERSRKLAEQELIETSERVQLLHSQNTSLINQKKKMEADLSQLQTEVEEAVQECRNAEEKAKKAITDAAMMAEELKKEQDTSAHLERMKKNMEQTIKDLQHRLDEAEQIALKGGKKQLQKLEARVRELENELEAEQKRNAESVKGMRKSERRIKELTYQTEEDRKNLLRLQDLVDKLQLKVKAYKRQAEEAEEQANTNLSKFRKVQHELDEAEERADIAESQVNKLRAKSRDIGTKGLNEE
Sequence of bovine cardiac myofibrils (full-length cardiac myosin ATPase in the native sarcomere) (P85100 whole entry partner): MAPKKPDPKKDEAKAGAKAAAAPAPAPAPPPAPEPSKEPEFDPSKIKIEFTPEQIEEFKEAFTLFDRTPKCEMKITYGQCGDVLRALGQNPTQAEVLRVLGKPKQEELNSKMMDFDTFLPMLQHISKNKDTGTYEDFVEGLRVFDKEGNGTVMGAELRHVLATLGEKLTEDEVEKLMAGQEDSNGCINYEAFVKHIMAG
Sequence of bovine cardiac myofibrils (full-length cardiac myosin ATPase in the native sarcomere) (Q3SZE5 whole entry partner): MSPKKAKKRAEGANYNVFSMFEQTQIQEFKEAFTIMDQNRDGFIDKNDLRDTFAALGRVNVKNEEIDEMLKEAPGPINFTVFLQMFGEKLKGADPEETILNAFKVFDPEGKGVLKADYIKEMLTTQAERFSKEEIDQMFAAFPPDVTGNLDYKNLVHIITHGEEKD

In the case of `COCc1nc(-c2ccc3c(c2)OCC3NC(=O)c2ccnn2C)no1` (stereo not shown) [Compound 223, N-(6-(5-(methoxymethyl)-1,2,4-oxadiazol-3-yl)-2,3-dihydrobenzofuran-3-yl)-1-methyl-1H-pyrazole-5-carboxamide], the “CDMF75 IC15” value is 1300 nM and the pIC50 (in general, the IC50 on a negative log10 scale, so that one unit is a factor of ten) was 5.38.

Take `Cn1cc(C(=O)NC2COc3cc(-c4noc(C(F)F)n4)ccc32)cn1` (stereo not shown) [Compound 219, N-(6-(5-(difluoromethyl)-1,2,4-oxadiazol-3-yl)-2,3-dihydrobenzofuran-3-yl)-1-methyl-1H-pyrazole-4-carboxamide]: the “CDMF75 IC15” value amounted to 700 nM and the pIC50 is 5.60.

As for `Cc1c(C(=O)N[C@@H]2CCc3cc(-c4nc(C(F)F)no4)ccc32)cnn1C` [Compound 277, (R)-N-(5-(3-(difluoromethyl)-1,2,4-oxadiazol-5-yl)-2,3-dihydro-1H-inden-1-yl)-1,5-dimethyl-1H-pyrazole-4-carboxamide], the “CDMF75 IC15” value was 1400 nM and the negative logarithm of the IC50 (pIC50) is 5.27.

In the case of `Cc1cc(C(=O)N[C@@H]2CCc3cc(-c4noc(C)n4)ccc32)n(C)n1` [Compound 106, (R)-1,3-dimethyl-N-(5-(5-methyl-1,2,4-oxadiazol-3-yl)-2,3-dihydro-1H-inden-1-yl)-1H-pyrazole-5-carboxamide], the “CDMF75 IC15” value came out at 800 nM and the negative-log IC50 (pIC50) was 5.55.

In the case of `O=C(Nc1ccccc1)NC1CCc2cc(-c3noc(C(F)F)n3)ccc21` (stereo not shown) [Compound 13, 1-(5-(5-(difluoromethyl)-1,2,4-oxadiazol-3-yl)-2,3-dihydro-1H-inden-1-yl)-3-phenylurea], the “CDMF75 IC15” value is 500 nM and the pIC50 is 4.66.

On to `Cc1cnc(-c2ccc3c(c2)CC[C@H]3NC(=O)c2ccnn2C)s1` [Compound 371, (R)-1-methyl-N-(5-(5-methylthiazol-2-yl)-2,3-dihydro-1H-inden-1-yl)-1H-pyrazole-5-carboxamide], for which the “CDMF75 IC15” value came to 700 nM and the pIC50 is 5.54.

`CCc1noc(-c2ccc3c(c2)CC[C@H]3NC(=O)c2cnn(C)c2C)n1` [Compound 255, (R)-N-(5-(3-ethyl-1,2,4-oxadiazol-5-yl)-2,3-dihydro-1H-inden-1-yl)-1,5-dimethyl-1H-pyrazole-4-carboxamide]: the “CDMF75 IC15” value was determined as 800 nM and the pIC50 was 5.59.

For the compound `CCc1nc(-c2ccc3c(c2)CC[C@H]3NC(=O)c2cnccc2C)no1` [Compound 627, (R)-N-(5-(5-ethyl-1,2,4-oxadiazol-3-yl)-2,3-dihydro-1H-inden-1-yl)-4-methylnicotinamide], the “CDMF75 IC15” value amounted to 3500 nM and the negative logarithm of the IC50 (pIC50) was 4.82.

For the compound `O=C(N[C@@H]1CCc2cc(-c3noc(C(F)F)n3)ccc21)c1cccc(CO)c1F` [Compound 662, (R)-N-(5-(5-(difluoromethyl)-1,2,4-oxadiazol-3-yl)-2,3-dihydro-1H-inden-1-yl)-2-fluoro-3-(hydroxymethyl)benzamide], the “CDMF75 IC15” value came out at 1600 nM and the pIC50 was 5.14.

`O=C(N[C@@H]1CCc2cc(-c3noc(C(F)F)n3)ccc21)c1cccc(CO)c1` [Compound 661, (R)-N-(5-(5-(difluoromethyl)-1,2,4-oxadiazol-3-yl)-2,3-dihydro-1H-inden-1-yl)-3-(hydroxymethyl)benzamide]: the “CDMF75 IC15” value turned out to be 300 nM and the pIC50 is 5.96.

Take `Cc1nccc(C(=O)NC2CCc3cc(-c4noc(C(F)F)n4)ccc32)n1` (stereo not shown) [Compound 26, N-(5-(5-(difluoromethyl)-1,2,4-oxadiazol-3-yl)-2,3-dihydro-1H-inden-1-yl)-2-methylpyrimidine-4-carboxamide]: the “CDMF75 IC15” value is 7800 nM and the pIC50 was 4.52.

Consider `[2H]C([2H])([2H])c1nc(-c2ccc3c(c2)CC[C@H]3NC(=O)c2cnc(C)o2)no1` [Compound 249, (R)-2-methyl-N-(5-(5-(methyl-d3)-1,2,4-oxadiazol-3-yl)-2,3-dihydro-1H-inden-1-yl)oxazole-5-carboxamide], for which the “CDMF75 IC15” value is 1400 nM and the pIC50 was 5.28.

On to `Cn1nccc1C(=O)N[C@@H]1CCc2cc(-c3noc(C4(C)CC4)n3)ccc21` [Compound 459, (R)-1-methyl-N-(5-(5-(1-methylcyclopropyl)-1,2,4-oxadiazol-3-yl)-2,3-dihydro-1H-inden-1-yl)-1H-pyrazole-5-carboxamide], for which the “CDMF75 IC15” value is 400 nM and the pIC50 was 5.92.

In the case of `CCc1nc(-c2ccc3c(c2)CC[C@H]3NC(=O)N2CC[C@H](O)C2)no1` [Compound 723, (S)-N-((R)-5-(5-ethyl-1,2,4-oxadiazol-3-yl)-2,3-dihydro-1H-inden-1-yl)-3-hydroxypyrrolidine-1-carboxamide], the “CDMF75 IC15” value was determined as 4400 nM and the pIC50 was 4.69.

Consider `CC(=O)OCc1nc(-c2ccc3c(c2)CCC3NC(=O)c2cn(C)nc2C)no1` (stereo not shown) [Compound 74, (3-(1-(1,3-dimethyl-1H-pyrazole-4-carboxamido)-2,3-dihydro-1H-inden-5-yl)-1,2,4-oxadiazol-5-yl)methyl acetate], for which the “CDMF75 IC15” value was 22300 nM and the pIC50 is below 4.41.

For the compound `CCc1nc(-c2ccc3c(c2)CC[C@H]3NC(=O)c2ccc(=O)n(CC(=O)O)c2)no1` [Compound 614, (R)-2-(5-((5-(5-ethyl-1,2,4-oxadiazol-3-yl)-2,3-dihydro-1H-inden-1-yl)carbamoyl)-2-oxopyridin-1(2H)-yl)acetic acid], the “CDMF75 IC15” value turned out to be 3400 nM and the negative logarithm of the IC50 (pIC50) was 4.83.

As to `CCc1nc(-c2ccc3c(c2)CC[C@H]3NC(=O)c2cnn(CC(=O)OC)c2)no1` [Compound 473, methyl (R)-2-(4-((5-(5-ethyl-1,2,4-oxadiazol-3-yl)-2,3-dihydro-1H-inden-1-yl)carbamoyl)-1H-pyrazol-1-yl)acetate], the “CDMF75 IC15” value is 1100 nM and the pIC50 is 5.42.

`CCc1nc(-c2ccc3c(c2)CC[C@H]3NC(=O)c2ccn(C)n2)no1` [Compound 592, (R)-N-(5-(5-ethyl-1,2,4-oxadiazol-3-yl)-2,3-dihydro-1H-inden-1-yl)-1-methyl-1H-pyrazole-3-carboxamide]: the “CDMF75 IC15” value is 2700 nM and the pIC50 was 4.96.

As to `Cc1nc(-c2ccc3c(c2)OC[C@H]3NC(=O)c2cccc([C@H](C)O)c2)no1` [Compound 734, 3-((S)-1-hydroxyethyl)-N-((S)-6-(5-methyl-1,2,4-oxadiazol-3-yl)-2,3-dihydrobenzofuran-3-yl)benzamide], the “CDMF75 IC15” value stood at 800 nM and the pIC50 is 5.39.

For the compound `CCc1nc(-c2ccc3c(c2)OCC[C@H]3NC(=O)c2cnn(C)c2)no1` [Compound 535, (R)-N-(7-(5-ethyl-1,2,4-oxadiazol-3-yl)chroman-4-yl)-1-methyl-1H-pyrazole-4-carboxamide], the “CDMF75 IC15” value is 1000 nM and the pIC50 is 5.24.

For `Cc1nc(-c2ccc3c(c2)CC[C@H]3NC(=O)c2ccc3[nH]c(=O)[nH]c3c2)no1` [Compound 125, (R)-N-(5-(5-methyl-1,2,4-oxadiazol-3-yl)-2,3-dihydro-1H-inden-1-yl)-2-oxo-2,3-dihydro-1H-benzo[d]imidazole-5-carboxamide], the “CDMF75 IC15” value worked out at 1600 nM and the pIC50 was 5.21.

For `Cc1cc(C(=O)NC2CCc3cc(-c4cc(C(F)F)on4)ccc32)ccn1` (stereo not shown) [Compound 168, N-(5-(5-(difluoromethyl)isoxazol-3-yl)-2,3-dihydro-1H-inden-1-yl)-2-methylisonicotinamide], the “CDMF75 IC15” value amounted to 1100 nM and the pIC50 was 5.42.

With `O=C(NC1CCc2cc(-c3noc(C(F)F)n3)ccc21)c1cncs1` (stereo not shown) [Compound 11, N-(5-(5-(difluoromethyl)-1,2,4-oxadiazol-3-yl)-2,3-dihydro-1H-inden-1-yl)thiazole-5-carboxamide], the “CDMF75 IC15” value amounted to 800 nM and the negative-log IC50 (pIC50) is 5.47.

Consider `COCc1nc(-c2ccc3c(c2)CC[C@H]3NC(=O)c2cn(CCO)nc2C)no1` [Compound 695, (R)-1-(2-hydroxyethyl)-N-(5-(5-(methoxymethyl)-1,2,4-oxadiazol-3-yl)-2,3-dihydro-1H-inden-1-yl)-3-methyl-1H-pyrazole-4-carboxamide], for which the “CDMF75 IC15” value was 2100 nM and the pIC50 was 5.11.

With `CCc1nc(-c2ccc3c(c2)CC[C@H]3NC(=O)c2ncc(C)s2)no1` [Compound 640, (R)-N-(5-(5-ethyl-1,2,4-oxadiazol-3-yl)-2,3-dihydro-1H-inden-1-yl)-5-methylthiazole-2-carboxamide], the “CDMF75 IC15” value is 500 nM and the pIC50 is 5.68.

In the case of `CCc1nc(-c2ccc3c(c2)CC[C@H]3NC(=O)c2cnco2)no1` [Compound 583, (R)-N-(5-(5-ethyl-1,2,4-oxadiazol-3-yl)-2,3-dihydro-1H-inden-1-yl)oxazole-5-carboxamide], the “CDMF75 IC15” value came out at 400 nM and the pIC50 is 5.89.

As to `Cc1nn(C)cc1C(=O)N[C@@H]1CCc2cc(-c3noc(C(C)C)n3)ccc21` [Compound 152, (R)-N-(5-(5-isopropyl-1,2,4-oxadiazol-3-yl)-2,3-dihydro-1H-inden-1-yl)-1,3-dimethyl-1H-pyrazole-4-carboxamide], the “CDMF75 IC15” value amounted to 600 nM and the pIC50 was 5.66.

On to `Cc1nc(-c2ccc3c(c2)OC[C@H]3NC(=O)c2cccc([C@@H](C)O)c2)no1` [Compound 735, 3-((R)-1-hydroxyethyl)-N-((S)-6-(5-methyl-1,2,4-oxadiazol-3-yl)-2,3-dihydrobenzofuran-3-yl)benzamide], for which the “CDMF75 IC15” value turned out to be 1600 nM and the pIC50 was 5.07.

Consider `CCc1nc(-c2ccc3c(c2)CC[C@H]3NC(=O)c2cc(C)ncn2)no1` [Compound 631, (R)-N-(5-(5-ethyl-1,2,4-oxadiazol-3-yl)-2,3-dihydro-1H-inden-1-yl)-6-methylpyrimidine-4-carboxamide], for which the “CDMF75 IC15” value worked out at 500 nM and the pIC50 is 5.74.
